The values below are quoted from earlier work in article PMC11123921, “Synthesis and Evaluation of 5-(Heteroarylmethylene)hydantoins as Glycogen Synthase Kinase-3β Inhibitors” (Pharmaceuticals, 2024).

As usually defined, the IC50 is the concentration needed to halve the response being measured.

One data set has as its system cancer migration. Further details: method as in PMID 20869139. Particulars: cited from earlier work.
Another data set addresses GSK-3β (Homo sapiens, UniProt P49841). Particulars: cited from earlier work.

GSK-3β, sequence (P49841 whole entry): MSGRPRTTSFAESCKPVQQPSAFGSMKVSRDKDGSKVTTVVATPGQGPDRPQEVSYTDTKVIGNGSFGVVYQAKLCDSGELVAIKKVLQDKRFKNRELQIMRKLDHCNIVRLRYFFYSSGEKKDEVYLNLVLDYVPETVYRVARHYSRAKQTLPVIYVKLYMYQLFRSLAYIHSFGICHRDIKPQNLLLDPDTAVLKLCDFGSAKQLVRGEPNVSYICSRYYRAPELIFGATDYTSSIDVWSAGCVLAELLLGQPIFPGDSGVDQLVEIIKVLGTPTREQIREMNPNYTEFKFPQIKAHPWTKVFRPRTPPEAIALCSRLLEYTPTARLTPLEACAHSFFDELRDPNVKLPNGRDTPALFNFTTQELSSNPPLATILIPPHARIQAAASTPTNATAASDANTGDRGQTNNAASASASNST

As for `O=C1NC(=O)/C(=C/c2cccc(-c3cccs3)n2)N1` [Compound 16], the “activity as cancer migration inhibitors” value in the data set on cancer migration is “notable activity”.

Turning to indirubin-3-monoxime, the IC50 on GSK-3β was 22 nM.
